Blank lines part the entries; values can stand above or below the compound they belong to. The source made the active and inactive calls. The rule behind the calls is not given here.
Tests used:
[1] = biological target: Lysine-specific demethylase 6B (Mus musculus) (UniProt Q5NCY0); assay: […] of JMJD3 in mouse C17.2 cells at 10 uM for 3 hrs; format: cell-based
[2] = biological target: Lysine-specific demethylase 6B (Mus musculus) (UniProt Q5NCY0); assay: Inhibition of JMJD3 in mouse C17.2 cells at 20 uM for 3 hrs; format: cell-based
Mus musculus [3] = assay: In vivo inhibition of JMJD3 in SCI mouse model assessed as upregulation of Olig2 expression administered at 100 mg/kg, ip for 5 days followed by subcutaneous administration for 7 days by immunoblot analysis; format: functional, organism-based; details: time 12.0 day
Mus musculus [4] = assay: Remyelination activity of SCI mouse model assessed as olig2 positive tube like structure administered at 100 mg/kg, ip for 5 days followed by subcutaneous administration for 7 days by immunohistochemical analysis; details: time 12.0 day
[5] = biological target: Lysine-specific demethylase 6B (Mus musculus) (UniProt Q5NCY0); assay: Inhibition of JMJD3 in mouse Neural Progenitor cell assessed as enhanced Olig2 expression at 10 uM by immunofluorescent staining; format: cell-based
[6] = biological target: Lysine-specific demethylase 6B (Mus musculus) (UniProt Q5NCY0); assay: Inhibition of JMJD3 in mouse C17.2 cell assessed as increased number of olig2 positive cell at 10 uM by Hoechst staining analysis; format: cell-based
[7] = biological target: Lysine-specific demethylase 6B (Mus musculus) (UniProt Q5NCY0); assay: Inhibition of JMJD3 in mouse Neural Progenitor cell assessed as Olig2 expression at 10 uM by immunoblot analysis; format: cell-based
[8] = biological target: Lysine-specific demethylase 6B (Mus musculus) (UniProt Q5NCY0); assay: Inhibition of JMJD3 in mouse C17.2 cell assessed as Olig2 expression at 10 uM by immunoblot analysis; format: cell-based
Mus musculus [9] = species: Mus musculus; assay: […] of phosphorylated c-Jun at ser63 residue in SCI mouse model; format: functional, organism-based
Mus musculus [10] = assay: In vivo inhibition of JMJD3 in SCI mouse model assessed as upregulation of H3K27me3 expression administered at 100 mg/kg, ip for 5 days followed by subcutaneous administration for 7 days by immunoblot analysis; format: functional, organism-based; details: time 12.0 day
[11] = biological target: Lysine-specific demethylase 6B (Mus musculus) (UniProt Q5NCY0); assay: Inhibition of JMJD3 in mouse C17.2 cell assessed as decreased number of GFAP positive cell at 10 uM by Hoechst staining analysis; format: cell-based

Chain of Lysine-specific demethylase 6B (Mus musculus) (Q5NCY0 whole entry): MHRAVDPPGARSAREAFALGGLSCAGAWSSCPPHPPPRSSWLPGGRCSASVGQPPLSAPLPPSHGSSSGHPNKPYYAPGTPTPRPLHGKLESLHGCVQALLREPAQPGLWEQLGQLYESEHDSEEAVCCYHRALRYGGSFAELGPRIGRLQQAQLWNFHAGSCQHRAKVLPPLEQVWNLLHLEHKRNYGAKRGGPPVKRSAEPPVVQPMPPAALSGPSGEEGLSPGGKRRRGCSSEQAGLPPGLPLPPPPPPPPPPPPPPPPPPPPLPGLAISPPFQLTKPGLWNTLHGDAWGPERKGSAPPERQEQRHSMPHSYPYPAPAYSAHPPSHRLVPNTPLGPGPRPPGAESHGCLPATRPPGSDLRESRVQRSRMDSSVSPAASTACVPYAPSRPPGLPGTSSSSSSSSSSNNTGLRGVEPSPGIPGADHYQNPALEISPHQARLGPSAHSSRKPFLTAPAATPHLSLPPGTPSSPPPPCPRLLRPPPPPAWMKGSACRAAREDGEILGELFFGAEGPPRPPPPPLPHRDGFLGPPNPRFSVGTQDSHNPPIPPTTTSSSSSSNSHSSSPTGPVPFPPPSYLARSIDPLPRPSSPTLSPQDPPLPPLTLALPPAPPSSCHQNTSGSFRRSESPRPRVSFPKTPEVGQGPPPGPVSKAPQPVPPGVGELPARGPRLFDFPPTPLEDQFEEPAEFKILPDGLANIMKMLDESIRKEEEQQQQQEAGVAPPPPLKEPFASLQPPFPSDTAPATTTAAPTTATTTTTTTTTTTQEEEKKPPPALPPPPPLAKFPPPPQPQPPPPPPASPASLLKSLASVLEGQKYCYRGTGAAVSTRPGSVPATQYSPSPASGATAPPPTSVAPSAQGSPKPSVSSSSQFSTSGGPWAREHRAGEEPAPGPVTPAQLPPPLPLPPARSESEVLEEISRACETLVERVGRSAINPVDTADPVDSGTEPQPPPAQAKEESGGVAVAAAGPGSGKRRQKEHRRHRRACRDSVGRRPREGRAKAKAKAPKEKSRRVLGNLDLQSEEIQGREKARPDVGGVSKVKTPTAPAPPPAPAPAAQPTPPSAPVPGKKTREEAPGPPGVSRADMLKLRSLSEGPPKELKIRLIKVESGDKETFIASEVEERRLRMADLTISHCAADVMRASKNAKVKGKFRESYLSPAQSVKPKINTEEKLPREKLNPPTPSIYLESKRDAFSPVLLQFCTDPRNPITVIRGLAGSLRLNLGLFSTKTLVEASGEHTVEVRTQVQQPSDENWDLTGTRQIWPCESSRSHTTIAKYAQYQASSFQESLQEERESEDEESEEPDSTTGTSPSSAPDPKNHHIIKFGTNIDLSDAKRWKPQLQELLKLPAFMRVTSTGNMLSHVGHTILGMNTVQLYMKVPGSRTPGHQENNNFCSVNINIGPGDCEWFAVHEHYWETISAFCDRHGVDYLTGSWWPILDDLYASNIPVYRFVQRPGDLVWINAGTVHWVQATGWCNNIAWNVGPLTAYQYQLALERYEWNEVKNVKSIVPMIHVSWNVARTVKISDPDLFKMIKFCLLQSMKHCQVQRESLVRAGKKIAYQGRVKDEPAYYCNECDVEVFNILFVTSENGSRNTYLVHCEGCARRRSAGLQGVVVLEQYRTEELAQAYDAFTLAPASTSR

Activity [1]: Active
Structure (SMILES): CC[C@]1(O)C[C@@H]2CN(CCc3c([nH]c4ccccc34)[C@@](C(=O)OC)(c3cc4c(cc3OC)N(C)[C@H]3[C@@](O)(C(=O)OC)[C@H](OC(C)=O)[C@]5(CC)C=CCN6CC[C@]43[C@@H]65)C2)C1

inhibition [2]: Active
Structure (SMILES): O=C1c2ccccc2-c2n[nH]c3cccc1c23

inhibition [5]: Active
inhibition [6]: Active
inhibition [7]: Active
inhibition [8]: Active
inhibition [11]: Active
Structure (SMILES): CCOC(=O)CCNc1cc(N2CCc3ccccc3CC2)nc(-c2ccccn2)n1
inhibition (Mus musculus [3]): Active
Activity (Mus musculus [4]): Active
Activity (Mus musculus [9]): Active
inhibition (Mus musculus [10]): Active

Source: ChEMBL document CHEMBL5712921, “Unlocking the Recovery Potential: JMJD3 Inhibition-Mediated SAPK/JNK Signaling Inactivation Supports Endogenous Oligodendrocyte-Lineage Commitment Post Mammalian Spinal Cord Injury” (Neurochem Res, 2021)
